Earlier results in patent US5516503A, “Diagnostic composition comprising a binuclear complex, its method of preparation and its use in magnetic resonance imaging” (Guerbet S.A., priority 1989, dated 1996).

What was measured:
[1] = information of Berlex Lab.
[2] = system: male mice; conditions: document FR-A-2 596 992

## CNC[C@H](O)[C@@H](O)[C@H](O)[C@H](O)CO.CNC[C@H](O)[C@@H](O)[C@H](O)[C@H](O)CO.O=C([O-])CN(CCN(CC(=O)[O-])CC(=O)O)CCN(CC(=O)[O-])CC(=O)O.[Gd+3] [Magnevist, salt of di-N-methylglucamine (dimeglumine) of the complex Gd(III)-diethylenetriaminepentaacetic acid (DTPA)]
[1]
  osmotic pressure: 1940 mosm/kg
[2]
  LD50: 4.45 mmol/kg
